Drawing on the OligoGym collection, this text covers target inhibition for 79 substances.

Only the 19 paired bases of each siRNA are shown; overhangs and chemistry are not given here.

Common to all, as to assay: five studies, different assays
Conditions in all cases: siRNA

For data set [1], the target named is Renilla luciferase.
In data set [2] the target is placental-type alkaline phosphatase.
Data set [3] deals with GAPDH.
Data set [4] addresses PTEN.
Further: test concentration or dose not given here.

Take “sense GAACAAAGGAAACGGAUGA / antisense UCAUCCGUUUCCUUUGUUC”: the target inhibition in data set [1] turned out to be 84.4%.

For “sense CGGAUGUUACCGAGAGCGA / antisense UCGCUCUCGGUAACAUCCG”, the target inhibition in data set [2] is 32%.

As for “sense UCAUGGGUGUGAACCAUGA / antisense UCAUGGUUCACACCCAUGA”, the target inhibition in data set [3] is 60.5%.

With “sense ACCUCAUCAUCUUCCUGGG / antisense CCCAGGAAGAUGAUGAGGU”, the target inhibition in data set [2] is 49%.

Take “sense UCUUACUGCAUGGUUUGAA / antisense UUCAAACCAUGCAGUAAGA”: the target inhibition in data set [1] is 52.3%.

Turning to “sense UUUAUGGCGACAUGUUGUG / antisense CACAACAUGUCGCCAUAAA”, in data set [1], the target inhibition worked out at 29.4%.

Turning to “sense CACUGCCGACCACUCCCAC / antisense GUGGGAGUGGUCGGCAGUG”, the target inhibition in data set [2] was -10%.

As for “sense CCUACACGGUCCUCCUAUA / antisense UAUAGGAGGACCGUGUAGG”, the target inhibition in data set [2] is 62.4%.

In the case of “sense GGAGCCAAAAGGGUCAUCA / antisense UGAUGACCCUUUUGGCUCC”, the target inhibition in data set [3] turned out to be 88.7%.

As to “sense UCUACGUGCAAGUGAUGAU / antisense AUCAUCACUUGCACGUAGA”, the target inhibition in data set [1] is 89.5%.

Turning to “sense AAGUAUGACAACAGCCUCA / antisense UGAGGCUGUUGUCAUACUU”, the target inhibition in data set [3] stood at 94.2%.

For “sense GACAACAGCCUCAAGAUCA / antisense UGAUCUUGAGGCUGUUGUC”, in data set [3], the target inhibition was 94.2%.

For the substance “sense CAAACAUGUGCCAGACAGU / antisense ACUGUCUGGCACAUGUUUG”, the target inhibition in data set [2] was determined as 88%.

Take “sense UUCCGAAAGGUUUUGCUAC / antisense GUAGCAAAACCUUUCGGAA”: the target inhibition in data set [4] was 32%.

For the substance “sense CUACACGGUCCUCCUAUAC / antisense GUAUAGGAGGACCGUGUAG”, in data set [2], the target inhibition was found to be 21.2%.

Consider “sense CAAAUCCAGAGGCUAGCAG / antisense CUGCUAGCCUCUGGAUUUG”, for which the target inhibition in data set [4] was determined as 44%.

Regarding “sense UUCCCGUUUUAUUCCAGUU / antisense AACUGGAAUAAAACGGGAA”, the target inhibition in data set [4] came out at 38%.

In the case of “sense GUCAUCAUCUCUGCCCCCU / antisense AGGGGGCAGAGAUGAUGAC”, the target inhibition in data set [3] stood at 69.8%.

Turning to “sense AAGUGUAGUAGAUGUGAUU / antisense AAUCACAUCUACUACACUU”, the target inhibition in data set [1] is 87.9%.

As for “sense CACUGACUCUGAUCCAGAG / antisense CUCUGGAUCAGAGUCAGUG”, the target inhibition in data set [4] amounted to 15%.

For “sense UGACACCGCCAAAUUUAAU / antisense AUUAAAUUUGGCGGUGUCA”, the target inhibition in data set [4] was found to be 65%.

“sense GCCAAGAACCUCAUCAUCU / antisense AGAUGAUGAGGUUCUUGGC”: the target inhibition in data set [2] stood at 90.8%.

Consider “sense GUGUGAACCAUGAGAAGUA / antisense UACUUCUCAUGGUUCACAC”, for which the target inhibition in data set [3] stood at 92.7%.

For the substance “sense AGUUCGUCGUCCAACAUUA / antisense UAAUGUUGGACGACGAACU”, the target inhibition in data set [1] worked out at 66.5%.

For the substance “sense UCUGGUGCAGGAAUGGCUG / antisense CAGCCAUUCCUGCACCAGA”, the target inhibition in data set [2] came out at 30%.

With “sense CAGGGGGGAGCCAAAAGGG / antisense CCCUUUUGGCUCCCCCCUG”, the target inhibition in data set [3] was -24.4%.

Turning to “sense AGAUGCACCUGAUGAAAUG / antisense CAUUUCAUCAGGUGCAUCU”, the target inhibition in data set [1] was 63.9%.

For “sense UGCUGAUGCCCCCAUGUUC / antisense GAACAUGGGGGCAUCAGCA”, the target inhibition in data set [3] came out at 12.7%.

Take “sense GAUCAAAUCUGAAGAAGGA / antisense UCCUUCUUCAGAUUUGAUC”: the target inhibition in data set [1] was found to be 90.9%.

Regarding “sense CCCCUGGCCAAGGUCAUCC / antisense GGAUGACCUUGGCCAGGGG”, the target inhibition in data set [3] is -2.51%.

On to “sense GUAUGACAACAGCCUCAAG / antisense CUUGAGGCUGUUGUCAUAC”, for which the target inhibition in data set [3] came to 77.6%.

For “sense UGGCCAAGGUCAUCCAUGA / antisense UCAUGGAUGACCUUGGCCA”, the target inhibition in data set [3] was determined as 91.5%.

Turning to “sense CAUGAGAAGUAUGACAACA / antisense UGUUGUCAUACUUCUCAUG”, the target inhibition in data set [3] worked out at 92.4%.

Take “sense CGGCGCCCGGCCGGAUGUU / antisense AACAUCCGGCCGGGCGCCG”: the target inhibition in data set [2] turned out to be 60%.

As to “sense UAAAACACCAUGAAAAUAA / antisense UUAUUUUCAUGGUGUUUUA”, the target inhibition in data set [4] was 58%.

Regarding “sense ACCAUGAGAAGUAUGACAA / antisense UUGUCAUACUUCUCAUGGU”, the target inhibition in data set [3] stood at 92.5%.

Take “sense CCUUUUGUGAAGAUCUUGA / antisense UCAAGAUCUUCACAAAAGG”: the target inhibition in data set [4] is 73%.

Take “sense GGGACGAACUGGUGUAAUG / antisense CAUUACACCAGUUCGUCCC”: the target inhibition in data set [4] turned out to be 75%.

As for “sense AAGGACUCAUGACCACAGU / antisense ACUGUGGUCAUGAGUCCUU”, in data set [3], the target inhibition was -17.4%.

For the substance “sense GAGGCAGCCGUUCGGAGGA / antisense UCCUCCGAACGGCUGCCUC”, in data set [4], the target inhibition was determined as 58%.

For “sense CUUCCUCGGCUUCUCCUGA / antisense UCAGGAGAAGCCGAGGAAG”, the target inhibition in data set [4] was 62%.

With “sense GGUCCCGUCCGCCUCUCGC / antisense GCGAGAGGCGGACGGGACC”, the target inhibition in data set [4] is 0%.

In the case of “sense ACAGACAGCCGCCAAGAAC / antisense GUUCUUGGCGGCUGUCUGU”, the target inhibition in data set [2] was found to be 54.7%.

As to “sense GCGGUCCAGAGCCAAGCGG / antisense CCGCUUGGCUCUGGACCGC”, the target inhibition in data set [4] was found to be 31%.

For the substance “sense UGACAACUUUGGUAUCGUG / antisense CACGAUACCAAAGUUGUCA”, the target inhibition in data set [3] turned out to be 43%.

Take “sense AAGAAUGGGCUUGAAACAU / antisense AUGUUUCAAGCCCAUUCUU”: the target inhibition in data set [4] turned out to be 40%.

As to “sense CAGUCAGAGGCGCUAUGUG / antisense CACAUAGCGCCUCUGACUG”, the target inhibition in data set [4] is 73%.

For the substance “sense GCGGCGGCGGCACCUCCCG / antisense CGGGAGGUGCCGCCGCCGC”, in data set [4], the target inhibition was found to be 20%.

For the substance “sense GGGUAAAUACAUUCUUCAU / antisense AUGAAGAAUGUAUUUACCC”, the target inhibition in data set [4] turned out to be 70%.

As for “sense GAAUCUGGUGCAGGAAUGG / antisense CCAUUCCUGCACCAGAUUC”, the target inhibition in data set [2] was found to be 56.5%.

As to “sense CUCAGAAAGGAAAUAAUUU / antisense AAAUUAUUUCCUUUCUGAG”, the target inhibition in data set [4] was found to be 30%.

Take “sense UCUGUCACCAACUGAAGUG / antisense CACUUCAGUUGGUGACAGA”: the target inhibition in data set [4] was 25%.

“sense CGGAAACGGUCCAGGCUAU / antisense AUAGCCUGGACCGUUUCCG”: the target inhibition in data set [2] is 80.2%.

Consider “sense CCAAAAGGGUCAUCAUCUC / antisense GAGAUGAUGACCCUUUUGG”, for which the target inhibition in data set [3] turned out to be 93.9%.

In the case of “sense CUUCAUAGCGCACGUCAUG / antisense CAUGACGUGCGCUAUGAAG”, in data set [2], the target inhibition was 16.5%.

Regarding “sense GAUCAUCAGCAAUGCCUCC / antisense GGAGGCAUUGCUGAUGAUC”, the target inhibition in data set [3] amounted to 70.8%.

For the substance “sense GACUGAGACGAUCAUGUUC / antisense GAACAUGAUCGUCUCAGUC”, the target inhibition in data set [2] turned out to be 85%.

As to “sense AUCAUGAGAAAGUUAGAAC / antisense GUUCUAACUUUCUCAUGAU”, the target inhibition in data set [1] was determined as 47.3%.

Consider “sense UCAAAGUAGAGUUCUUCCA / antisense UGGAAGAACUCUACUUUGA”, for which the target inhibition in data set [4] turned out to be 30%.

“sense AGUACCCAGAUGACUACAG / antisense CUGUAGUCAUCUGGGUACU”: the target inhibition in data set [2] was 1.85%.

“sense GGGCGGGCCAGCUCACCAG / antisense CUGGUGAGCUGGCCCGCCC”: the target inhibition in data set [2] is 20%.

As for “sense GCUACAGUUAUUAAUCUGG / antisense CCAGAUUAAUAACUGUAGC”, the target inhibition in data set [4] amounted to 37%.

Take “sense AGGAGAACCCGGACUUCUG / antisense CAGAAGUCCGGGUUCUCCU”: the target inhibition in data set [2] was found to be 81%.

For “sense GCACCACCAACUGCUUAGC / antisense GCUAAGCAGUUGGUGGUGC”, in data set [3], the target inhibition was found to be 38.6%.

Turning to “sense CUUUGAGCCUGGAGACAUG / antisense CAUGUCUCCAGGCUCAAAG”, the target inhibition in data set [2] is 79%.

Take “sense GAAUUUGCAGCAUAUCUUG / antisense CAAGAUAUGCUGCAAAUUC”: in data set [1], the target inhibition turned out to be 84.8%.

On to “sense UCCACAGGGUUUUGACACU / antisense AGUGUCAAAACCCUGUGGA”, for which the target inhibition in data set [4] was 45%.

On to “sense GCACAUCCAGGGACCCGGG / antisense CCCGGGUCCCUGGAUGUGC”, for which, in data set [4], the target inhibition stood at 32%.

As to “sense CCUGUGAGCAGCCGCGGGG / antisense CCCCGCGGCUGCUCACAGG”, in data set [4], the target inhibition was 25%.

With “sense UGUUCGUCAUGGGUGUGAA / antisense UUCACACCCAUGACGAACA”, the target inhibition in data set [3] stood at 80.3%.

Turning to “sense GGUCUUCCGAGGCGCCCGG / antisense CCGGGCGCCUCGGAAGACC”, the target inhibition in data set [4] worked out at 0%.

On to “sense AUGACAACAGCCUCAAGAU / antisense AUCUUGAGGCUGUUGUCAU”, for which the target inhibition in data set [3] turned out to be 58.3%.

For “sense GAAACGGUCCAGGCUAUGU / antisense ACAUAGCCUGGACCGUUUC”, the target inhibition in data set [2] is 5.96%.

With “sense AAGUAAGGACCAGAGACAA / antisense UUGUCUCUGGUCCUUACUU”, the target inhibition in data set [4] came out at 75%.

As to “sense GCCAAGAAGUUUCCUAAUA / antisense UAUUAGGAAACUUCUUGGC”, in data set [1], the target inhibition came out at 72.2%.

Turning to “sense ACCAUCUCCAGCUAUUUAC / antisense GUAAAUAGCUGGAGAUGGU”, the target inhibition in data set [4] amounted to 6%.

As to “sense UGUUCGACGACGCCAUUGA / antisense UCAAUGGCGUCGUCGAACA”, the target inhibition in data set [2] came out at 74%.

Turning to “sense UCUCGGAAGCUGCAGCCAU / antisense AUGGCUGCAGCUUCCGAGA”, the target inhibition in data set [4] came to 40%.

Regarding “sense GAGUGCAGCACGCCUCGCC / antisense GGCGAGGCGUGCUGCACUC”, the target inhibition in data set [2] was -5%.
